Test results reported in patent publication US20220023278A1, “ANTI-AGING METHOD COMPRISING APPLYING JWA GENE” (Simcere Pharmaceutical Co., Ltd., priority 2019, published 2022).

Assays:
JWA gene = experiment: JWA reporter gene assay (dual-luciferase) in HBE cells; type: cell-based, human; conditions: 24 hours treatment
Excerpt: 2012 bp upstream of the JWA transcription start site (referred to “JWA promoter sequence” hereafter) was amplified by RT-PCR according to the human-derived JWA promoter sequence (FIG. 35), and inserted into a pGL3-Neo vector by using KpnI and NheI restriction enzyme sites, thereby yielding a recombinant vector (FIG. 36) containing the JWA promoter sequence. The recombinant vector was transferred into E. coli. (DH5a). Positive clones were sequenced to verify accuracy, thereby obtaining a neomycin-resistant reporter plasmid containing the JWA gene promoter. The plasmid and corresponding strains were stored at −70° C. for use.
Human bronchial epithelial (HBE) cells were cultured at a density of 3000 cells per well in a 384-well plate and allowed to adhere together. […]
After incubation, the 384-well plate was taken out, allowing the reagents and cells to equilibrate to room temperature of 18-22° C. […] The luciferase activity was analyzed by using a Dual-Luciferase Reporter Assay kit (Promega) and measured by a chemiluminescence analyzer (3010 C chemiluminescence analyzer). […]

JWA protein = experiment: Western blot of JWA protein expression in HBE cells; type: cell-based, human; conditions: 24 hours and 48 hours, 1, 10, and 100 μmol/L
Description: The HBE cells in the logarithmic growth phase were digested, plated at a density of 5×10^5/cell onto a 60 mm cell culture dish, and incubated in different doses of the compound JAC-4 for 24 hours or 48 hours, respectively. The cells were then treated with 0.18 mL of radio immunoprecipitation assay (RIPA, containing 0.5% PMSF) cell lysate for protein extraction, and centrifuged at 12,000×g for 15 minutes. The supernatant was collected and the protein concentration was measured. The proteins were heated and separated by electrophoresis through 12.5% polyacrylamide gel. 70 μg of the heated proteins was loaded into each well and separated by electrophoresis at 60 V for 30 minutes and 90 V for 1-1.5 hours. The proteins were then transferred from the gel to a PVDF membrane using a mini-genie transfer apparatus. The PVDF membrane was blocked with 5% skim milk, incubated at room temperature for 1-2 hours, and washed with TBST (containing 0.1% Tween 20). The washing step was repeated 3 times for 5 minutes each time. The blocked membrane was incubated overnight with primary antibody at 4° C., and then washed with TBS (containing 0.1% Tween 20). The washing step was repeated 3 times for 5 minutes each time. The blocked membrane was incubated at room temperature for 1-2 hours with secondary antibody, and then washed with TBST (containing 0.1% Tween 20). […]

[1] = HPLC analysis of compound in processed, Co60-sterilized test feed; type: physicochemical; conditions: pelleted feed, Co60 irradiation
Excerpt: The compound JAC-4 (purity>99%) was mixed with an equal amount of standard mouse feed. Specifically, 1 g of compound JAC-4 was thoroughly mixed with 1 g of basic feed materials; 2 g of the mixture was thoroughly mixed with 2 g of basic feed materials; 4 g of the mixture was thoroughly mixed with 4 g of basic feed materials, and so on, thereby obtaining two test feeds respectively containing 1 g/kg and 2 g/kg of the compound JAC-4. According to the standard operating procedures for feed, the test feeds were processed into pellets, vacuum packaged, and sterilized by a Co60 source irradiation. The feed processing was entrusted to a professional company. To verify that the compound JAC-4 was evenly distributed in the mixed feeds and not damaged in the structure during processing, the sterilized feeds were randomly sampled and fully extracted with organic solvents. The content of the compound JAC-4 was then measured by High Performance Liquid Chromatography and it was confirmed that the compound JAC-4 was not damaged and the content thereof met the requirements (FIGS. 38-40).

12-month-old mice = experiment: Feeding 12-month-old mice with test feed containing 1 g/kg JAC-4; type: in vivo
Description: 12-month-old mice were housed in specific pathogen free (SPF) conditions at an ambient temperature of 22±2° C. and a relative humidity of 40%-60%, in day/night cycles of 12 h/12 h simulated by lighting. Mice were fed with sterile acidified water, common feeds (without compound JAC-4) or test feeds (with compound JAC-4).
In general, the daily feed consumption of each mouse is about 10% of its body weight. Therefore, when the mice consume 1 g/kg of JAC-4 experimental feed, it is equivalent to the daily intake of 100 mg/kg of JAC-4. The mice were weighed every two weeks from the start of feeding and scored on the aging appearance every two weeks from the sixth week. The higher the score, the more obvious the aging appearance. The mice were photographed monthly and changes in appearance were recorded. In all the experiments attention was paid to ethical guidelines for the investigation of experimental pain in conscious animals.

[2] = test system: naturally aging mice (24 months old); experiment: Feeding naturally aging 24-month-old mice with test feed containing 2 g/kg JAC-4; type: in vivo; conditions: test feed 2 g/kg, 10 weeks
Description: Feeding 24-month-old mice with the test feed containing 2 g/kg of the compound JAC-4 (equivalent to 200 mg JAC-4/kg body weight).
Mice were housed in the same conditions as Example 12. After feeding for 10 weeks, the mice were anesthetized. The whole blood was collected, allowed to stand for 30 min at room temperature, and centrifuged at 3000 rpm for 15 min. The supernatant, i.e., serum, was collected and analyzed by Hitachi 7100 automatic biochemical analyzer. Liver, spleen and kidney tissues of the mice were isolated on ice, fixed with 4% paraformaldehyde, or frozen at −80° C. The fixed tissues were processed into a paraffin section or frozen section with a thickness of 5 μm, stained with HE to visualize the morphological and pathological changes in the liver, spleen and kidney. The liver section was stained with oil red O for fat deposition and stained with periodic acid-Schiff (PAS) for glycogen. Total protein was extracted from the liver and spleen frozen at −80° C., and cell membrane proteins were extracted from the liver frozen at −80° C. Western blot was performed to detect the expression of JWA protein in liver and spleen tissues, the expression of p-AKT, AKT, p-GSK3β and GSK3β proteins in liver tissues, and the expression of glucose transporter (Glut 2) in cell membrane proteins of liver tissues. A biochemical kit (purchased from Nanjing Jiancheng Bioengineering Institute, Nanjing, China) was used to detect the activities of Superoxide dismutase (SOD), as well as the main rate-limiting enzymes of glucose and lipid metabolism in liver tissues. In all the experiments attention was paid to ethical guidelines for the investigation of experimental pain in conscious animals.

[3] = test feed 1 g/kg vs common feed

c1ccc(CSc2nnc(C3COc4ccccc4O3)o2)nc1 (centres unmarked) [JAC-4]
activation of JWA gene expression (luciferase reporter) (JWA gene): sharp dose-effect relationship | expression level of JWA protein (JWA protein): enhanced | integrity of compound in feed after processing and sterilization [1]: not damaged | body weight (12-month-old mice; 22nd week, test feed 1 g/kg (100 mg/kg daily) vs common feed): no statistical difference | hair loss (12-month-old mice; [3]): significant decrease | score of aging appearance (12-month-old mice; [3]): significant decrease | SOD in the liver [2]: increase | SOD in the serum [2]: increase | glycogen synthase in the liver [2]: increased | rate-limiting enzyme related to glucose decomposition in the liver [2]: increased | serum glucose [2]: significantly reduced | serum triglycerides [2]: significantly reduced | age-related inflammatory cell infiltration around the central vein of the liver ([2]; HE staining): significantly reduced | morphology of liver, kidney and spleen ([2]; HE staining): did not produce observable abnormal changes | glycogen synthesis in the liver ([2]; PAS staining): increased | AKT phosphorylation in liver ([2]; Western blot): activated | GSK3β in liver ([2]; Western blot): inhibited | Glut 2 expression in liver cell membranes ([2]; Western blot): increased | expression of JWA protein in liver tissue ([2]; Western blot): increased significantly | expression of JWA protein in spleen tissue ([2]; Western blot): increased significantly
